The assay concerns the target Carbonic anhydrase 2 (Homo sapiens, UniProt P00918). Kind of assay: In vitro binding of inhibitor to hCA-II. As to the method: Inhibitor binding to CA II was determined using a fluorescence competition assay. Displacement of dansylamide and binding of the inhibitor was determined by measuring and comparing the average fluorescence intensities of the treated versus control reactions. Binding constants were estimated from a Dixon plot of the data (reciprocal of the average fluorescence intensity versus inhibitor concentration)

Here are results for 33 molecules from BindingDB's records for doi:10.1016/s0968-0896(00)00026-2 (Alcon Research, 2000).

SMILES strings stand for the structures. Structures can show the parent of a compound that is named as a salt.

A word on the Ki: it is the equilibrium dissociation constant of an inhibitor or competing ligand from its target. A high value points to weaker binding.

For `C#CCNCC1=Cc2cc(S(N)(=O)=O)sc2S(=O)(=O)N1CCC` [1,1-dioxo-3-[(prop-2-yn-1-ylamino)methyl]-2-propyl-2H-1,7,2-thieno[3,2-e][1,2]thiazine-6-sulfonamide], affinity was put at a Ki of 0.1 nM. As to `COc1cccc(N2C(CN3CCOCC3)=Cc3cc(S(N)(=O)=O)sc3S2(=O)=O)c1` [2-(3-Methoxyphenyl)-3-[(4-morpholinyl)methyl]-2H-thieno-[3,2-e]-1,2-thiazine-6-sulfonamide 1,1-dioxide], the inhibition constant (Ki) (pH 7.4, 37 °C) came to 0.15 nM.

Take `C#CCNCC1=Cc2cc(S(N)(=O)=O)sc2S(=O)(=O)N1c1cccc(O)c1` [2-(3-hydroxyphenyl)-1,1-dioxo-3-[(prop-2-yn-1-ylamino)methyl]-2H-1,7,2-thieno[3,2-e][1,2]thiazine-6-sulfonamide hydrochloride]: the affinity corresponds to a Ki of 0.16 nM. In turn, `NS(=O)(=O)c1cc2c(s1)S(=O)(=O)N(CC1CC1)C(CN1CCOCC1)=C2` [2-(cyclopropylmethyl)-3-(morpholin-4-ylmethyl)-1,1-dioxo-2H-1,7,2-thieno[3,2-e][1,2]thiazine-6-sulfonamide hydrochloride] showed an inhibitory constant (Ki) of 0.3 nM. As to `CCN1C(CN2CCOCC2)=Cc2cc(S(N)(=O)=O)sc2S1(=O)=O` [2-Ethyl-3-[(4-morpholinyl)methyl]-2H-thieno[3,2-e]-1,2-thiazine-6-sulfonamide 1,1-dioxide hydrochloride], the affinity (pH 7.4, 37 °C) corresponds to a Ki of 0.21 nM. On the same count and under the same terms, in the case of `CCN1C(CN(CCOC)CCOC)=Cc2cc(S(N)(=O)=O)sc2S1(=O)=O` [2-Ethyl-3-[[bis(2-methoxyethyl)amino]methyl]-2H-thieno-[3,2-e]-1,2-thiazine-6-sulfonamide 1,1-dioxide hydrochloride] it was 0.21 nM; in that of `CCCNCCN1C=Cc2cc(S(N)(=O)=O)sc2S1(=O)=O` [2-[2-(Propylamino)ethyl]-2H-thieno[3,2-e]-1,2-thiazine-6-sulfonamide 1,1-dioxide hydrochloride], 0.52 nM; in that of `NS(=O)(=O)c1cc2c(s1)S(=O)(=O)N(C/C=C/CN1CCOCC1)C=C2` [2-[(2E)-4-(morpholin-4-yl)but-2-en-1-yl]-1,1-dioxo-2H-1,7,2-thieno[3,2-e][1,2]thiazine-6-sulfonamide hydrochloride], 0.24 nM.

Where the note is “pH 7.4, 37 °C”, `CN1C(CN2CCOCC2)=Cc2cc(S(N)(=O)=O)sc2S1(=O)=O` [2-methyl-3-(morpholin-4-ylmethyl)-1,1-dioxo-2H-1,7,2-thieno[3,2-e][1,2]thiazine-6-sulfonamide hydrochloride] displayed an inhibition constant (Ki) of 0.26 nM. For `COCCN(CCOC)CCN1C=Cc2cc(S(N)(=O)=O)sc2S1(=O)=O` [2-{2-[bis(2-methoxyethyl)amino]ethyl}-1,1-dioxo-2H-1,7,2-thieno[3,2-e][1,2]thiazine-6-sulfonamide hydrochloride], the inhibition constant Ki (pH 7.4, 37 °C) was found to be 0.34 nM.

On to `C=CCN1C(CN2CCOCC2)=Cc2cc(S(N)(=O)=O)sc2S1(=O)=O` [3-(morpholin-4-ylmethyl)-1,1-dioxo-2-(prop-2-en-1-yl)-2H-1,7,2-thieno[3,2-e][1,2]thiazine-6-sulfonamide], for which affinity was put at a Ki of 0.16 nM.

For the molecule `COCCCN1C(CNC2CC2)=Cc2cc(S(N)(=O)=O)sc2S1(=O)=O` [3-[(cyclopropylamino)methyl]-2-(3-methoxypropyl)-1,1-dioxo-2H-1,7,2-thieno[3,2-e][1,2]thiazine-6-sulfonamide hydrochloride], the inhibition constant (Ki) was 0.26 nM.

`COCCN(C)CC1=Cc2cc(S(N)(=O)=O)sc2S(=O)(=O)N1C` [3-[N-(2-Methoxyethyl)-N-methylamino]methyl]-2-methyl-2H-thieno[3,2-e]-1,2-thiazine-6-sulfonamide 1,1-dioxide]: the affinity (pH 7.4, 37 °C), expressed as Ki, was 0.15 nM. Regarding `COc1cccc(N2C(CNCCO)=Cc3cc(S(N)(=O)=O)sc3S2(=O)=O)c1` [3-{[(2-hydroxyethyl)amino]methyl}-2-(3-methoxyphenyl)-1,1-dioxo-2H-1,7,2-thieno[3,2-e][1,2]thiazine-6-sulfonamide hydrochloride], the Ki was 0.11 nM. The molecule `COCCCN(CCOC)CC1=Cc2cc(S(N)(=O)=O)sc2S(=O)(=O)N1C` [3-{[(2-methoxyethyl)(3-methoxypropyl)amino]methyl}-2-methyl-1,1-dioxo-2H-1,7,2-thieno[3,2-e][1,2]thiazine-6-sulfonamide hydrochloride] registered a Ki (pH 7.4, 37 °C) of 0.08 nM. `CCCN1C(CN(CCOC)CCOC)=Cc2cc(S(N)(=O)=O)sc2S1(=O)=O` [3-{[bis(2-methoxyethyl)amino]methyl}-1,1-dioxo-2-propyl-2H-1,7,2-thieno[3,2-e][1,2]thiazine-6-sulfonamide hydrochloride] registered a Ki of 0.15 nM. In turn, `NS(=O)(=O)c1cc2c(s1)S(=O)(=O)N(CCN1CCOCC1)C=C2` [Compound 5b] displayed a Ki (pH 7.4, 37 °C) of 0.32 nM. The same measure, in the same setting: in the case of `CC(=O)N1CCN(CCN2C=Cc3cc(S(N)(=O)=O)sc3S2(=O)=O)CC1` [Compound 5c] it was 0.25 nM; in that of `C=CCN(CCOC)CC1=Cc2cc(S(N)(=O)=O)sc2S(=O)(=O)N1C` [Compound 17a7], 0.1 nM. In turn, `CCN1C(CN(CCO)CCO)=Cc2cc(S(N)(=O)=O)sc2S1(=O)=O` [Compound 17b4] showed a Ki of 0.33 nM. Turning to `CCCN1C(CN2CCOCC2)=Cc2cc(S(N)(=O)=O)sc2S1(=O)=O` [Compound 17c1], the affinity corresponds to a Ki of 0.27 nM.

For `CC(C)N1C(CN2CCOCC2)=Cc2cc(S(N)(=O)=O)sc2S1(=O)=O` [Compound 17d1], the Ki came out at 0.33 nM. The same measure, in the same setting: in the case of `C#CCNCC1=Cc2cc(S(N)(=O)=O)sc2S(=O)(=O)N1C(C)C` [Compound 17d8] it was 0.47 nM; in that of `NS(=O)(=O)c1cc2c(s1)S(=O)(=O)N(C1CCCCC1)C(CN1CCOCC1)=C2` [Compound 17g1], 0.31 nM; in that of `COCCN1C(CN2CCOCC2)=Cc2cc(S(N)(=O)=O)sc2S1(=O)=O` [Compound 17h1], 0.22 nM. In the case of `COCCN(CCOC)CC1=Cc2cc(S(N)(=O)=O)sc2S(=O)(=O)N1CCOC` [Compound 17h2], the affinity, expressed as Ki, was 0.21 nM. As for `COCCCN1C(CN2CCOCC2)=Cc2cc(S(N)(=O)=O)sc2S1(=O)=O` [Compound 17i1], the affinity, expressed as Ki, was 0.25 nM. `COCCCN1C(Cn2ccnc2)=Cc2cc(S(N)(=O)=O)sc2S1(=O)=O` [Compound 17i10] came in with a Ki of 0.12 nM. Still for that read-out and setting: under `COc1ccc(CN2C(CN3CCOCC3)=Cc3cc(S(N)(=O)=O)sc3S2(=O)=O)cc1` [Compound 17j1] stands 0.11 nM.

`COc1ccc(N2C(CN3CCOCC3)=Cc3cc(S(N)(=O)=O)sc3S2(=O)=O)cc1OC` [Compound 17m1] had an inhibitory constant (Ki) of 0.08 nM.

As for `NS(=O)(=O)c1cc2c(s1)S(=O)(=O)N(c1ccc(N3CCOCC3)cc1)C(CN1CCOCC1)=C2` [Compound 17n1], the Ki amounted to 0.12 nM. For `NS(=O)(=O)c1cc2c(s1)S(=O)(=O)N(CCCO)C(CN1CCOCC1)=C2` [Compound 17o1], the inhibition constant Ki came out at 0.2 nM. `CN1C(CN2CCOCC2)=Cc2sc(S(N)(=O)=O)cc2S1(=O)=O` [Compound 25] had a Ki of 0.21 nM.
